In patent US11667632B2, “2-(1H-indazol-3-yl)-3H-imidazo[4,5-C]pyridines and their anti-inflammatory uses thereof” (BioSplice Therapeutics, Inc., priority 2015, dated 2023):

Assays:
[1] = Plasma concentrations after a single intra-articular injection of radiolabeled Compound 10 in rats; type: in vivo, Sprague Dawley (SD) rats; settings: SD rats, single IA injection 1 μg/knee
Description: Plasma concentration and distribution of Compound 10 following a single IA injection in Sprague Dawley (SD) rats were investigated in radiolabeled and mass balance studies with a tritium-labeled (^3H) Compound 10. [^3H]-Compound 10 was formulated as a suspension in 0.5% carboxymethylcellulose/0.05% polysorbate 80 for intra-articular (IA) injection and diluted with unlabeled Compound 10 to the appropriate concentration and injected in the rat knee joint at a dose level equivalent to 1 μg/knee.

[2] = Persistence and half-life of radiolabeled Compound 10 in rat knee joints; type: in vivo; settings: SD rats
Source text: […] These same animals were used for the QWBA experiments (above).
On Day 180, only about ˜6.6% of administered dose was detected.

[3] = Stability and radiochemical purity of the [3H]-Compound 10 formulation incubated at 37° C.; type: physicochemical
Description: The stability and radiochemical purity (RCP) of the radiolabeled [^3H]-Compound 10 was established in a concurrent experiment where a formulation of radiolabeled [3^H]-Compound 10 was incubated at 37° C. and radiochemical purity (RCP) of aliquots were analyzed over time and determined to be ˜ 95.5% (Days 0, 7, 14 and 30), 94.5% (Day 60), 93% (Day 90), and 83% (Day 180).

Interleukin 1β (IL1β) = assay: Inhibition of inflammatory cytokine expression in IL-1β-stimulated synovial fibroblasts, qRT-PCR; type: cell-based; settings: human synovial fibroblasts, IL-1β (100 ng/mL), Compound 10 at 100 nM and 30 nM, 24 hrs; FIG. 14B
Description: Synovial fibroblasts were plated in 6-well plates at 0.5 million cells per well in Leibovitz's L-15 Medium with 1% FBS. Compound 10 dissolved in DMSO was added to the wells at different concentrations. […] Cells were harvested by trypsinization, pelleted, washed with PBS and Total RNA was isolated using RNeasy Mini Kit (Qiagen). cDNA was synthesized using the QuantiTect Reverse Transcription kit (Qiagen). qRT-PCR was performed with QuantiTect SYBR Green PCR Kit (Qiagen) and gene-specific primers, using CFX384 (Biorad). Transcripts were quantitated by comparative Ct method and normalized to endogenous controls, β-actin and GAPDH.

TNF-α = assay: Inhibition of TNF-α in LPS-stimulated primary PBMCs (ELISA, MSD U-plex); type: cell-based; settings: human PBMCs, LPS (500 ng/mL), Compound 10 (150 nM), 24 hrs; MSD platform; FIG. 15
Description: (§1) Primary peripheral blood mononuclear cells (PBMCs) freshly isolated from healthy human donors were obtained from AllCells Inc. and utilized for assays immediately. Compound 10 was dissolved in DMSO as a 10 mM stock and used to prepare compound source plates. A serial dilution (8-point dose-response) and compound transfer was performed using the ECHO 550 (Labcyte, Sunnyvale, Calif.) into 96-well clear bottom assay plates (Greiner Bio-One) with appropriate DMSO backfill for a final DMSO concentration of 0.05%. PBMCs were plated at 2×10e^5 cells/well in Roswell Park Memorial Institute (RPMI) 1640 Medium (Catalog #21870-100, Buffalo, N.Y.) with 1% L-glutamine, 1% HEPES, 1% Sodium Pyruvate, 2% Sodium Bicarbonate supplemented with 100 units/mL penicillin, 50 μg/mL streptomycin and 1% fetal bovine serum (Catalog #16140089, Life Technologies, Carlsbad, Calif.). […]
(§2) Supernatants were diluted appropriately for ELISA. […] Following several washes to remove unbound avidin-HRP, the TMB substrate was added and the plates were read on the Cytation 3 plate reader (Biotek Inc., Winooski, Vt.) at an absorbance of 450 nm with correction at 570 nm. […] Inhibition profile and EC50 was calculated using Prism 5 (GraphPad Software Inc, La Jolla, Calif., USA). […] Levels of cytokines were calculated using software form Meso Scale Discovery.

IL-5 = assay: Inhibition of IL-5 in LPS-stimulated primary PBMCs (MSD U-plex); type: cell-based; settings: human PBMCs, LPS (500 ng/mL), Compound 10 (150 nM), 24 hrs; MSD platform; FIG. 15
Description: as §1, §2

IL-6 = assay: Inhibition of IL-6 in LPS-stimulated primary PBMCs (ELISA, MSD U-plex); type: cell-based; settings: human PBMCs, LPS (500 ng/mL), Compound 10 (150 nM), 24 hrs; MSD platform; FIG. 15
Description: as §1, §2

IL-8 = assay: Inhibition of IL-8 in LPS-stimulated primary PBMCs (MSD U-plex); type: cell-based; settings: human PBMCs, LPS (500 ng/mL), Compound 10 (150 nM), 24 hrs; MSD platform; FIG. 15
Description: as §1, §2

[4] = time points Days 14-90 only, excluding Day 180

Mean radioactivity exposure AUC(0-inf) ([1]; females): 1.818 ng-equiv.h/g | Mean radioactivity exposure AUC(0-t) ([1]; females): 1.040 ng-equiv.h/g | Tmax ([1]; females): 4 h | apparent terminal elimination half-life in the blood ([1]; females): 124 h | Mean radioactivity exposure AUC(0-inf.) ([1]; males): 1.548 ng-equiv.h/g | Mean radioactivity exposure AUC(0-t) ([1]; males): 0.832 ng-equiv.h/g | Tmax ([1]; males): 1 h | apparent terminal elimination half-life in the blood ([1]; males): 57 h | mean % of administered dose per knee ([2]; 1 μg/knee IA, Day 14): 64% | mean % of administered dose per knee ([2]; 1 μg/knee IA, Day 30): 54% | mean % of administered dose per knee ([2]; 1 μg/knee IA, Day 60): 42% | mean % of administered dose per knee ([2]; 1 μg/knee IA, Day 90): 38% | % of administered dose detected in knee joint ([2]; 1 μg/knee IA, Day 180): ~6.6% | detection in the knee joint space (radiographic images) ([2]; Day 180): still detectable | elimination rate constant, Ke ([2]; all time points, Days 14-180): 0.01342 | half-life (T1/2) in the knee joint ([2]; all time points, Days 14-180): 51.64 days | elimination rate constant, Ke [2, 4]: 0.00687 | half-life (T1/2) in the knee joint [2, 4]: 100.9 days | administered radioactivity recovered in each knee joint ([2]; two IA injections at 1 μg/knee, 1 h post-IA injection up to 168 h): 60-85% | radiochemical purity (RCP) of formulation over time ([3]; Day 60): 94.5% | radiochemical purity (RCP) of formulation over time ([3]; Day 90): 93% | radiochemical purity (RCP) of formulation over time ([3]; Day 180): 83% | radiochemical purity (RCP) of formulation over time ([3]; Days 0, 7, 14 and 30): ~95.5%
Structure (SMILES): CC(C)CC(=O)Nc1cncc(-c2ccc3[nH]nc(-c4nc5c(-c6cccc(F)c6)cncc5[nH]4)c3c2)c1 [Compound 10]
inhibition of inflammatory cytokine secretion (qRT-PCR) (Interleukin 1β (IL1β)): inhibition | Inhibition of TNF-α (TNF-α): Inhibition | Inhibition of IL-5 (IL-5): Inhibition | Inhibition of IL-6 (IL-6): Inhibition | Inhibition of IL-8 (IL-8): Inhibition
